Tested on: HT-29 cells
Assay: HT-29 cell necrosis/necroptosis inhibition (TNF-α + SMAC mimetic + zVAD-FMK; CellTiter-Glo cell viability)
Format: cell-based
Conditions: Homo sapiens; HT-29 cells, TNF-α 10 ng/ml + SMAC mimetic 6 μM + zVAD-FMK 10 μM, 20 hours; geometric mean, 10 points in duplicate; read-out: EC50 (Cell activity; Necrosis/Necroptosis Inhibitory Activity, Compounds 1-142)
Method in brief: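 Necroptosis was driven by TNF-α 10 ng/ml plus SMAC mimetic 6 μM and zVAD-FMK 10 μM in serum-free medium, with compounds as a 10-point threefold titration. After 20 h at 37 °C, ATP-based luminescence was read; EC50 values are geometric means of duplicate curves.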

Compound | EC50 [nM]
Cc1nn(CCC2CCOCC2)c(C)c1-c1nc(N2CCN(C(=O)N3N=CC[C@H]3c3cc(F)cc(C#N)c3)CC2)ncc1F [Compound 138, (S)-3-(1-(4-(4-(3,5-dimethyl-1-(2-(tetrahydro-2H-pyran-4-yl)ethyl)-1H-pyrazol-4-yl)-5-fluoropyrimidin-2-yl)piperazine-1-carbonyl)-4,5-dihydro-1H-pyrazol-5-yl)-5-fluorobenzonitrile] | 0.1 to 100
N#Cc1cc(F)cc([C@@H]2CC=NN2C(=O)N2CCN(c3ncc(F)c(-n4cnc(Cl)n4)n3)CC2)c1 [Compound 126, (S)-3-(1-(4-(4-(3-chloro-1H-1,2,4-triazol-1-yl)-5-fluoropyrimidinyl)piperazine-1-carbonyl)-4,5-dihydro-1H-pyrazol-5-yl)-5-fluorobenzonitrile] | 0.1 to 100
Cc1nn(CC2CCCCO2)c(C)c1-c1nc(N2CCN(C(=O)N3N=CC[C@H]3c3cc(F)cc(C#N)c3)CC2)ncc1F (stereo partly shown) [Compound 137, 3-((58)-1-(4-(4-(3,5-dimethyl-1-((tetrahydro-2H-pyran-2-yl)methyl)-1H-pyrazol-4-yl)-5-fluoropyrimidin-2-yl)piperazine-1-carbonyl)-4,5-dihydro-1H-pyrazol-5-yl)-5-fluorobenzonitrile] | 0.1 to 100
O=C(N1CCN(c2ncc(F)c(-n3cnc(Cl)n3)n2)CC1)N1N=CC[C@H]1c1cc(F)cc(F)c1 [Compound 24, (S)-(4-(4-(3-chloro-1H-1,2,4-triazol-1-yl)-5-fluoropyrimidin-2-yl)piperazin-1-yl)(5-(3,5-difluorophenyl)-4,5-dihydro-1H-pyrazol-1-yl)methanone] | 0.1 to 100
Cc1ncc(-c2nc(N3CCN(C(=O)N4N=CC[C@H]4c4cc(F)cc(F)c4)CC3)ncc2F)s1 [Compound 56, (S)-(5-(3,5-difluorophenyl)-4,5-dihydro-1H-pyrazol-1-yl)(4-(5-fluoro-4-(2-methylthiazol-5-yl)pyrimidin-2-yl)piperazin-1-yl)methanone] | 0.1 to 100
COC(=O)c1c[nH]c(-c2nc(N3CCN(C(=O)N4N=CC[C@H]4c4cc(F)cc(F)c4)CC3)ncc2F)c1 [Compound 12, methyl (S)-5-(2-(4-(5-(3,5-difluorophenyl)-4,5-dihydro-1H-pyrazole-1-carbonyl)piperazin-1-yl)-5-fluoropyrimidin-4-yl)-1H-pyrrole-3-carboxylate] | 0.1 to 100
O=C(N1CCN(c2ncc(F)c(-c3ccc(O)nc3)n2)CC1)N1N=CC[C@H]1c1cc(F)cc(F)c1 [Compound 25, (S)-(5-(3,5-difluorophenyl)-4,5-dihydro-1H-pyrazol-1-yl)(4-(5-fluoro-4-(6-hydroxypyridin-3-yl)pyrimidin-2-yl)piperazin-1-yl)methanone] | 0.1 to 100
Cc1nn(CCO)c(C)c1-c1nc(N2CCN(C(=O)N3N=CC[C@H]3c3cc(F)cc(F)c3)CC2)ncc1F [Compound 118, (S)-(5-(3,5-difluorophenyl)-4,5-dihydro-1H-pyrazol-1-yl)(4-(5-fluoro-4-(1-(2-hydroxyethyl)-3,5-dimethyl-1H-pyrazol-4-yl)pyrimidin-2-yl)piperazin-1-yl)methanone] | 0.1 to 100
CCn1c(C)nn(-c2nc(N3CCN(C(=O)N4N=CC[C@H]4c4cc(F)cc(C#N)c4)CC3)ncc2F)c1=O [Compound 97, (S)-3-(1-(4-(4-(4-ethyl-3-methyl-5-oxo-4,5-dihydro-1H-1,2,4-triazol-1-yl)-5-fluoropyrimidin-2-yl)piperazine-1-carbonyl)-4,5-dihydro-1H-pyrazol-5-yl)-5-fluorobenzonitrile] | 0.1 to 100
Cc1cc(-c2nc(N3CCN(C(=O)N4N=CC[C@H]4c4ccccc4)CC3)ncc2F)n(C)n1 [Compound 85, (S)-(4-(4-(1,3-dimethyl-1H-pyrazol-5-yl)-5-fluoropyrimidin-2-yl)piperazin-1-yl)(5-phenyl-4,5-dihydro-1H-pyrazol-1-yl)methanone] | 0.1 to 100
Cc1n[nH]c(C)c1-c1nc(N2CCN(C(=O)N3N=CC[C@H]3c3cc(F)cc(F)c3)CC2)ncc1F [Compound 93, (S)-(5-(3,5-difluorophenyl)-4,5-dihydro-1H-pyrazol-1-yl)(4-(4-(3,5-dimethyl-1H-pyrazol-4-yl)-5-fluoropyrimidin-2-yl)piperazin-1-yl)methanone] | 0.1 to 100

Same assay, conditions: Homo sapiens; HT-29 cells, TNF-α 10 ng/ml + SMAC mimetic 6 μM + zVAD-FMK 10 μM, 20 hours; geometric mean, 10 points in duplicate; read-out: EC50 (Cell activity; Necrosis/Necroptosis Inhibitory Activity, Compounds 143-323)

Compound | EC50 [nM]
Cc1cnn(C)c1-c1nc(N2CCN(C(=O)N3N=CC[C@H]3c3cc(F)cc(F)c3)CC2)sc1CO [Compound 267, (S)-(5-(3,5-difluorophenyl)-4,5-dihydro-1H-pyrazol-1-yl)(4-(4-(1,4-dimethyl-1H-pyrazol-5-yl)-5-(hydroxymethyl)thiazol-2-yl)piperazin-1-yl)methanone] | 1000 to 10000
Cc1nc(C)n(-c2nc(N3CCN(C(=O)N4N=CCC4c4csc(C)n4)CC3)ncc2Cl)n1 (stereo not shown) [Compound 224, (4-(5-chloro-4-(3,5-dimethyl-1H-1,2,4-triazol-1-yl)pyrimidin-2-yl)piperazin-1-yl)(5-(2-methylthiazol-4-yl)-4,5-dihydro-1H-pyrazol-1-yl)methanone] | 100 to 1000
Cc1nc(C)n(-c2nc(N3CCN(C(=O)N4N=CCC4c4cc(C#N)cc(F)c4F)CC3)ncc2F)n1 (stereo not shown) [Compound 238, 3-(1-(4-(4-(3,5-dimethyl-1H-1,2,4-triazol-1-yl)-5-fluoropyrimidin-2-yl)piperazine-1-carbonyl)-4,5-dihydro-1H-pyrazol-5-yl)-4,5-difluorobenzonitrile] | 0.1 to 100
Cc1nn(-c2cc(N3CCN(C(=O)N4N=CC[C@H]4c4cncc(F)c4)CC3)ncn2)c(C)c1C(N)=O [Compound 284, (S)-1-(6-(4-(5-(5-fluoropyridin-3-yl)-4,5-dihydro-1H-pyrazole-1-carbonyl)piperazin-1-yl)pyrimidin-4-yl)-3,5-dimethyl-1H-pyrazole-4-carboxamide] | 100 to 1000
Cc1nn(-c2cc(N3CCN(C(=O)N4N=CC[C@H]4c4cc(F)cc(C#N)c4)CC3)ncn2)c(C)c1C#N [Compound 279, (S)-1-(6-(4-(5-(3-cyano-5-fluorophenyl)-4,5-dihydro-1H-pyrazole-1-carbonyl)piperazin-1-yl)pyrimidin-4-yl)-3,5-dimethyl-1H-pyrazole-4-carbonitrile] | 0.1 to 100
Cc1nnc(-c2nc(N3CCN(C(=O)N4N=CC[C@H]4c4cc(F)cc(C#N)c4)CC3)ncc2F)n1C [Compound 179, (S)-3-(1-(4-(4-(4,5-dimethyl-4H-1,2,4-triazol-3-yl)-5-fluoropyrimidin-2-yl)piperazine-1-carbonyl)-4,5-dihydro-1H-pyrazol-5-yl)-5-fluorobenzonitrile] | 0.1 to 100
Cc1nn(-c2ccnc(N3CCN(C(=O)N4N=CC[C@H]4c4cc(F)cc(C#N)c4)CC3)n2)c(C)c1C(N)=O [Compound 276, (S)-1-(2-(4-(5-(3-cyano-5-fluorophenyl)-4,5-dihydro-1H-pyrazole-1-carbonyl)piperazin-1-yl)pyrimidin-4-yl)-3,5-dimethyl-1H-pyrazole-4-carboxamide] | 0.1 to 100
Cn1nc(CO)nc1-c1ccnc(N2CCN(C(=O)N3N=CC[C@H]3c3cc(F)cc(C#N)c3)CC2)n1 [Compound 171, (S)-3-fluoro-5-(1-(4-(4-(3-(hydroxymethyl)-1-methyl-1H-1,2,4-triazol-5-yl)pyrimidin-2-yl)piperazine-1-carbonyl)-4,5-dihydro-1H-pyrazol-5-yl)benzonitrile] | 0.1 to 100
Cc1nn2c(c1-c1nc(N3CCN(C(=O)N4N=CC[C@H]4c4cc(F)cc(C#N)c4)CC3)ncc1F)CCC2 [Compound 184, (S)-3-fluoro-5-(1-(4-(5-fluoro-4-(2-methyl-5,6-dihydro-4H-pyrrolo[1,2-b]pyrazol-3-yl)pyrimidin-2-yl)piperazine-1-carbonyl)-4,5-dihydro-1H-pyrazol-5-yl)benzonitrile] | 0.1 to 100
Cc1nn(-c2cc(N3CCN(C(=O)N4N=CC[C@H]4c4cc(F)cc(C#N)c4)CC3)ncn2)c(C)c1Cl [Compound 289, (S)-3-(1-(4-(6-(4-chloro-3,5-dimethyl-1H-pyrazol-1-yl)pyrimidin-4-yl)piperazine-1-carbonyl)-4,5-dihydro-1H-pyrazol-5-yl)-5-fluorobenzonitrile] | 0.1 to 100
CC(=O)Nc1c(C)nn(-c2nc(N3CCN(C(=O)N4N=CC[C@H]4c4cc(F)cc(F)c4)CC3)ncc2F)c1C [Compound 193, (S)—N-(1-(2-(4-(5-(3,5-difluorophenyl)-4,5-dihydro-1H-pyrazole-1-carbonyl)piperazin-1-yl)-5-fluoropyrimidin-4-yl)-3,5-dimethyl-1H-pyrazol-4-yl)acetamide] | 0.1 to 100
Cc1nnc(-c2nc(N3CCN(C(=O)N4N=CC[C@H]4c4cc(F)cc(F)c4)CC3)ncc2F)n1C [Compound 178, (S)-(5-(3,5-difluorophenyl)-4,5-dihydro-1H-pyrazol-1-yl)(4-(4-(4,5-dimethyl-4H-1,2,4-triazol-3-yl)-5-fluoropyrimidin-2-yl)piperazin-1-yl)methanone] | 0.1 to 100
Cn1nc(CF)nc1-c1nc(N2CCN(C(=O)N3N=CC[C@H]3c3cc(F)cc(C#N)c3)CC2)ncc1F [Compound 170, (S)-3-fluoro-5-(1-(4-(5-fluoro-4-(3-(fluoromethyl)-1-methyl-1H-1,2,4-triazol-5-yl)pyrimidin-2-yl)piperazine-1-carbonyl)-4,5-dihydro-1H-pyrazol-5-yl)benzonitrile] | 0.1 to 100
Cc1nn(-c2nc(N3CCN(C(=O)N4N=CC[C@H]4c4cc(F)cc(C#N)c4)CC3)ncc2F)c(C)c1[N+](=O)[O-] [Compound 191, (S)-3-(1-(4-(4-(3,5-dimethyl-4-nitro-1H-pyrazol-1-yl)-5-fluoropyrimidin-2-yl)piperazine-1-carbonyl)-4,5-dihydro-1H-pyrazol-5-yl)-5-fluorobenzonitrile] | 0.1 to 100
